# Measured values taken from patent US6060608A, “Analogs of CC-1065 and the duocarmycins” (The Scripps Research Institute, priority 1999, dated 2000).
# How the values were obtained:
# [1] = Solvolysis in THF-CH3OH with CF3SO3H; assay type: physicochemical; details: 20 equiv CH3OH, 0.1 equiv CF3SO3H
# Method: Solvolysis of N-BOC-CCBI in THF-CH3 OH. The solvolysis of N-BOC-CCBI (25) was carried out in THF with 20-500 equiv of CH3 OH in the presence of 0.1-0.25 equiv of CF3 SO3 H. The following is the procedure for the solvolysis of 25 in THF with 20 equiv of CH3 OH in the presence of CF3 SO3 H (0.1 equiv). A stock solution was prepared by addition of CF3 SO3 H (5.6 μL) and anhydrous CH3 OH (502 μL) to anhydrous THF (99.49 mL). A sample of 25 (100 μg) in a UV cell was dissolved in THF (1950 μL) and the THF stock solution (50 μL) which contained CF3 SO3 H (0.1 equiv) and CH3 OH (20 equiv) was added. The solvolysis solution was sealed and UV spectrum was measured with an automated cycle program at regular intervals (10 min/cycle). The decrease in the long wavelength absorption at 313 nm was monitored and the solvolysis was complete after 80 h.
# [2] = Solvolysis regioselectivity (acid-catalyzed nucleophilic addition to the cyclopropane); assay type: physicochemical; details: C9 addition versus ring expansion
# Text: Solvolysis: Reactivity. Two fundamental characteristics of the alkylation subunits have proven important in the studies to date. The first is the stereoelectronically-controlled acid-catalyzed ring-opening of the cyclopropane which dictates preferential addition of a nucleophile to the least substituted cyclopropane carbon. With the CBI series of modified alkylation subunits where this stereoelectronic alignment of the C8b-C9 bond is nearly optimized, exclusive (≥20:1) addition to the C9 center with cleavage of the C8b-C9 bond is observed. […] Thus, the impact of the difluorocyclopropane substitution on the reactivity and reaction regioselectivity of CBI was examined.
# Solvolysis: Regioselectivity. Treatment of both 217 and 219 with catalytic CF3 SO3 H (0.1 equiv) in CH3 OH (0° C.) rapidly and cleanly provided a single characterizable product 225 (30 min, 90%) or 226 (10 min, 79%), FIG. 33. […] Furthermore, the ^1 H-^13 C HMBC NMR spectrum of 226 established the carbon-carbon connectivity of C1 (δ51.0) with the CF2 carbon (δ50.3, t) and C9b (δ125.0). No connectivity between the key CF2 carbon (δ50.3, t) and […] was detected as required of the ring expansion regioisomer. This was unambiguously established by conducting the solvolysis in THF-H2 O catalyzed by CF3 SO3 H (0.12 equiv) which cleanly provided 227 (18 h, 85%), FIG. 33. […]
# [3] = tested on: L1210; assay: In vitro cytotoxic activity, L1210; details: N-BOC derivatives
# [4] = tested on: w794 duplex DNA; assay: DNA alkylation selectivity and efficiency within w794 DNA, thermally-induced strand cleavage and PAGE; assay type: biochemical, SV40
# Procedure, shortened: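 5′-32P end-labeled w794 duplex DNA in TE buffer (pH 7.2–7.5) incubated with agent in DMSO across concentrations, 4–37 °C for 24–76 h depending on agent. Unbound agent removed by EtOH precipitation; thermolysis 100 °C, 30 min cleaves alkylation sites, mapped by denaturing 8% PAGE beside Sanger standards and autoradiography.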
# [5] = natural enantiomers, 37° C., 72 h
structure (smiles),measurement,setting,value
"CC(C)(C)OC(=O)N1CC2CC23C1=CC(=O)c1ccc(C#N)cc13 (stereo not shown) [compound 25, N-(tert-Butyloxycarbonyl)-7-cyano-1,2,9,9a-tetrahydrocyclopropa[c]benz[e]indol-4-one]",solvolysis half-life t1/2,[1],9.2 h
same,solvolysis rate k,[1],2e-05 s⁻¹
same,time to complete solvolysis,[1],80 h
same,"solvolysis regioselectivity, addition to the least substituted or C9 cyclopropane carbon",[2],nucleophilic addition to the least substituted carbon of the activated cyclopropane was observed exclusively
same,relative cytotoxic potency of natural versus unnatural enantiomers,[3],4 ×
same,DNA alkylation sequence selectivity,[4],5'-AA>5'-TA
same,concentration providing detectable DNA alkylation,"[4]; both enantiomers, 37° C., 24-72 h",10^-2 to 10^-3 M
same,concentration at which DNA alkylation is detectable,[4]; [5],10^-3 M
same,concentration at which DNA alkylation is prominent,[4]; [5],10^-2 M
same,DNA alkylation less efficient than 34-39,[4]; two enantiomers of 25,10^4 ×
